Test results reported in patent publication US20240025892A1 (priority 2020, published 2024).
“Also recorded” adds a separate entry of the source.

How the values were obtained:
CRTC2 (TORC2) = assay: CRTC2 nuclear translocation (PathHunter U2OS); assay type: cell-based
Procedure, shortened: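 U2OS enzyme-fragment complementation cells (ED-tagged CRTC2, EA-tagged nuclear TAZ domain) treated 90 minutes, duplicate 5-point 4-fold dilutions from 10 μM. Chemiluminescent substrate signal; maximal translocation expressed as percent of forskolin-stimulated signal.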

HDAC4/5 = HDAC4/5 phosphorylation immunoblot in Ocy454 cells; assay type: cell-based; conditions: 2 hours
Protocol: Immunoblotting was performed as previously described (see e.g., Wein et al, Nature Communications, 2016, 7:13176; and Sato et al, Nature Communications, 2020, 11(1):3282). […]. Adherent cells were washed with ice cold PBS, then scraped into TNT buffer on ice. Material was then transferred into Eppendorf tubes kept on ice, vortexed at top speed for 30 seconds, then centrifuged at top speed for 6 minutes at 4° C. For subcellular fractionation, cells were initially resuspended in hypotonic lysis buffer (20 mM HEPES, 10 mM KCl, 1 mM MgCl2, 0.1% Triton X-100, 5% glycerol supplemented with DTT, protease inhibitors, and phosphatase inhibitors) for 5 minutes on ice. Nuclear pellets were spun down at 5,000 rpm for 5 minutes, and the supernatant was saved as the cytoplasmic lysate. Thereafter, the nuclear pellet was washed once in 1 mL hypotonic lysis buffer. The nuclear pellet was then resuspended in hypertonic lysis buffer (20 mM HEPES, 400 mM NaCl, 1 mM EDTA, 0.1% Triton X-100, 5% glycerol supplemented with DTT, protease inhibitors, and phosphatase inhibitors), followed by vortexing twice for 30 seconds. Debris was spun down at 14,000 rpm for 5 minutes, and the supernatant was saved as the nuclear lysate. For immunoblotting, lysates or immunoprecipitates were separated by SDS-PAGE and proteins were transferred to nitrocellulose. Membranes were blocked with 5% milk in tris-buffered saline plus 0.05% Tween-20 (TBST) and incubated with primary antibody overnight at 4° C. The next day, membranes were washed, incubated with appropriate HRP-coupled secondary antibodies, and signals detected with ECL Western Blotting Substrate (Pierce), ECL Plus Western Blotting Substrate (Pierce), or SuperSignal West Femto Maximum Sensitivity Substrate (Thermo scientific). The primary antibodies phospho-HDAC4/5/7 (S246/S259/S155) (Cell Signaling Technology, 3443) and total HDAC5 (Assay Biotech, C0225).

SOST = SOST gene expression in Ocy454 cells (RT-qPCR); assay type: cell-based; conditions: 4 hours
[1] = Initial mouse pharmacokinetic study; assay type: in vivo
[2] = 3-week mouse study: tolerability and serum drug levels; assay type: in vivo, mice
Protocol: […]. For oral gavage, cmpd. 51 was dissolved in vehicle solution of 15% hydroxy-propyl beta-cyclodextrin in sterile water.
(§1) […]. In addition, one group of mice with oral vehicle solution (negative control) and another group of mice were treated with once daily subcutaneous hPTH(1-34) (80 μg/kg) injections (positive control). […].

[3] = system: eugonadal 8 week old male mice; assay: 3-week mouse study: serum mineral metabolism parameters and bone turnover markers; assay type: in vivo; conditions: for serum CTX (bone resorption marker) / serum P1NP (bone formation marker): 40 mg/kg oral, 21 days, compared to vehicle; for serum 1,25-vitamin D / serum BUN / serum PTH levels / serum calcium / serum phosphorus: after 21 days of treatment, 2 hours after final dose
Protocol: . In addition, one group of mice with oral vehicle solution (negative control) and another group of mice were treated with once daily subcutaneous hPTH(1-34) (80 μg/kg) injections (positive control). […]. Serum mineral metabolism parameters were measured in mice in all 5 treatment groups after 21 days of treatment (serum was collected 2 hours after the final treatment dose). […]. Serum bone turnover markers (P1NP, a marker of bone formation; CTX, a marker of bone resorption) were next measured on samples collected after 21 days of treatment. […]

[4] = system: eugonadal 8 week old male mice; assay: 3-week mouse study: femur microCT; assay type: in vivo; conditions: 3 weeks; for midshaft cortical bone tissue mineral density (TMD), microCT: femur
Protocol: as §1

[5] = system: eugonadal 8 week old male mice; assay: 3-week mouse study: tibia histology and femur histomorphometry; assay type: in vivo; conditions: 3 weeks
Protocol: as §1

[6] = system: bone cell marker genes, sclerostin; assay: 3-week mouse study: cortical bone RT-qPCR and sclerostin immunohistochemistry; assay type: in vivo, mice; conditions: 3 weeks of treatment
Protocol: . For this, cortical bone RNA isolated from mice following three weeks of cmpd. 51 treatment were analyzed and subjected to RT-qPCR for well-established bone cell marker genes. […]. […] Therefore, sclerostin (encoded by the Sost gene) expression in bone in response to cmpd. 51 treatment was also assessed by RT-qPCR and immunohistochemistry. […]. Cmpd. 55A (FIG. 17) was also identified. […]

RANKL = RANKL gene expression in Ocy454 cells (RT-qPCR); conditions: for RANKL expression: 4 hours, RT-qPCR;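 as to all read-outs here: Ocy454 cells moved to 37 °C for osteocytic differentiation before compound exposure, RANKL mRNA by SYBR Green qRT-PCR, 2^−ΔΔCT with β-actin normalization, duplicate wells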
Recombinant SIK2 = Recombinant SIK2 (Homo sapiens (Human), UniProt Q9H0K1); assay: biochemical; conditions: recombinant SIK2 2.5 nM, 1 μM ATP; read-out: SIK2 IC50
SIK3 = SIK3 (Homo sapiens (Human), UniProt Q9Y2K2); assay: In vitro SIK3 kinase assay; assay type: biochemical
Protocol: (§2) Assays were performed in base reaction buffer (20 mM Hepes (pH 7.5), 10 mM MgCl2, 1 mM EGTA, 0.02% Brij35, 0.02 mg/mL BSA, 0.1 mM Na3VO4, 2 mM DTT, 1% DMSO). Compounds were dissolved in 100% DMSO in a 10 mM stock. […] Assays were performed for 20 minutes at room temperature, after which time ^33P-ATP (10 μCi/μL) was added followed by incubation for another 120 minutes at room temperature. Thereafter, radioactivity incorporated into the pEY peptide substrate was detected by filter-binding method. Kinase activity data were expressed as the percent remaining kinase activity in test samples compared to DMSO reactions. IC50 values and curve fits were obtained using Prism (GraphPad Software).

SIK1 = SIK1 (Homo sapiens (Human), UniProt P57059); assay: In vitro SIK1 kinase assay; assay type: biochemical
Protocol: as §2

SIK3 in HEK293T cells = SIK3 in HEK293T cells (Homo sapiens (Human), UniProt Q9Y2K2); assay: cell-based; conditions: read-out: IC50 for SIK3 (nanoBRET)
SIK1 in HEK293T cells = SIK1 in HEK293T cells (Homo sapiens (Human), UniProt P57059); assay: cell-based; conditions: read-out: IC50 for SIK1 (nanoBRET)
[7] = molecular target: NanoLuc-SIK2 fusion in HEK293 cells (Homo sapiens (Human), UniProt Q9H0K1); assay: cell-based; conditions: HEK293T cells; read-out: IC50 for SIK2 (nanoBRET)
Sequence of NanoLuc-SIK2 fusion in HEK293 cells (Q9H0K1 whole entry, the tested form may be a part): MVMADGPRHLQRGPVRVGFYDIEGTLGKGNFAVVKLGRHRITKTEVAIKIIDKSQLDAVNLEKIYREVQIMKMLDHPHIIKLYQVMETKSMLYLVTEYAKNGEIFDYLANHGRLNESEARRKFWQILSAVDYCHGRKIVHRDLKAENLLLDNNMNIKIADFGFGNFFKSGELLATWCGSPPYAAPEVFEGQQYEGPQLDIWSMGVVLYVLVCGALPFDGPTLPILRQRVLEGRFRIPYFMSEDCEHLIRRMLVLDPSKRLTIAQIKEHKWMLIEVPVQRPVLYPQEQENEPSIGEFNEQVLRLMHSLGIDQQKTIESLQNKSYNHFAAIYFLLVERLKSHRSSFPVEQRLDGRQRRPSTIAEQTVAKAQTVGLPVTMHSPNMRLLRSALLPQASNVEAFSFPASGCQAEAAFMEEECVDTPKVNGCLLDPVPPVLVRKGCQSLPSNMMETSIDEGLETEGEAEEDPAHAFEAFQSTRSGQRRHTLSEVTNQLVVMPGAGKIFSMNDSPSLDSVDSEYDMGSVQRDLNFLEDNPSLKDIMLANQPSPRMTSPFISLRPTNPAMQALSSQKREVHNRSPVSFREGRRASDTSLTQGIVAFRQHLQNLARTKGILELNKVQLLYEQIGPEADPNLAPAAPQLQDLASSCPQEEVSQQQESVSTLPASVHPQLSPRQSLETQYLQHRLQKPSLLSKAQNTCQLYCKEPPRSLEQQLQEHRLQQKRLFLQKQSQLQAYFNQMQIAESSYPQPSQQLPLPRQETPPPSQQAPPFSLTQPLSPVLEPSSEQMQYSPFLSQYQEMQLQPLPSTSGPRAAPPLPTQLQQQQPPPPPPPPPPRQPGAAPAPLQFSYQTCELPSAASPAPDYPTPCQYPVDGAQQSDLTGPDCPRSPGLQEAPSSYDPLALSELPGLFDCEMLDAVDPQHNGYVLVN

Sequence of SIK3 (Q9Y2K2 whole entry): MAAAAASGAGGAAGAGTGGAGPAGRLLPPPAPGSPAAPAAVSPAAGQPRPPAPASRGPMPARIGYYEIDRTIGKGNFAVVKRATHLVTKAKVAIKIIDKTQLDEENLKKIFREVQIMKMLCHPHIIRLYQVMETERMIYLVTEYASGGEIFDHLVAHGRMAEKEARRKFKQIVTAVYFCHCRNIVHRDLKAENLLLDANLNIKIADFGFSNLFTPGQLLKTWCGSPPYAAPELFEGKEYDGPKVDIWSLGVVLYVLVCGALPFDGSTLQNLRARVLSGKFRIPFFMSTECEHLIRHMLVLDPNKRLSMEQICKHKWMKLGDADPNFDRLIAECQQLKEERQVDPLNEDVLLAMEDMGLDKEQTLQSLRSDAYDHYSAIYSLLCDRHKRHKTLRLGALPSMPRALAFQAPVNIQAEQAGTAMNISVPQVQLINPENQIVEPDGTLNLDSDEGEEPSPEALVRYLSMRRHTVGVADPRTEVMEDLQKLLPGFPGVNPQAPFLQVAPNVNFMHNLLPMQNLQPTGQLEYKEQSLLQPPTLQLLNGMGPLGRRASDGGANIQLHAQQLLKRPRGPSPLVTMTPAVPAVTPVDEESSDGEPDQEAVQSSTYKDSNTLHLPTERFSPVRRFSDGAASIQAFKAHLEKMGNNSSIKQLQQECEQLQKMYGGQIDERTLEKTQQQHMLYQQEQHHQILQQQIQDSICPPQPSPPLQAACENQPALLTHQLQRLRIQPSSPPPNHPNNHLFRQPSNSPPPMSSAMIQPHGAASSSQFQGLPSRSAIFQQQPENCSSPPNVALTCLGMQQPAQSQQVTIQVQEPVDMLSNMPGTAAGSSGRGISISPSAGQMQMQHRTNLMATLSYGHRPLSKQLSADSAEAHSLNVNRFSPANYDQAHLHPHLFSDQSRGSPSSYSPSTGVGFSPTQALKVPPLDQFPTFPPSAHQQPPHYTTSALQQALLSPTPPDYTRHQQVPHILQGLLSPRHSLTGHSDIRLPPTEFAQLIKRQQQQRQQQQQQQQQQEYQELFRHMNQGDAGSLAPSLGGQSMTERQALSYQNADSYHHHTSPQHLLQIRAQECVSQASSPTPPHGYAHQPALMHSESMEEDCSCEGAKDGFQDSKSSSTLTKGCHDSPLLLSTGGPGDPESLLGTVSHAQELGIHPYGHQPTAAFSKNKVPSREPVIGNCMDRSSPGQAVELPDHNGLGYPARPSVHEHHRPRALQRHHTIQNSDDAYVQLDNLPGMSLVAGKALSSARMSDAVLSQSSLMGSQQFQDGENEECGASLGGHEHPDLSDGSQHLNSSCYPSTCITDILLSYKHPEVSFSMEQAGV
Sequence of SIK3 in HEK293T cells (Q9Y2K2 whole entry): as above
Sequence of SIK1 (P57059 whole entry): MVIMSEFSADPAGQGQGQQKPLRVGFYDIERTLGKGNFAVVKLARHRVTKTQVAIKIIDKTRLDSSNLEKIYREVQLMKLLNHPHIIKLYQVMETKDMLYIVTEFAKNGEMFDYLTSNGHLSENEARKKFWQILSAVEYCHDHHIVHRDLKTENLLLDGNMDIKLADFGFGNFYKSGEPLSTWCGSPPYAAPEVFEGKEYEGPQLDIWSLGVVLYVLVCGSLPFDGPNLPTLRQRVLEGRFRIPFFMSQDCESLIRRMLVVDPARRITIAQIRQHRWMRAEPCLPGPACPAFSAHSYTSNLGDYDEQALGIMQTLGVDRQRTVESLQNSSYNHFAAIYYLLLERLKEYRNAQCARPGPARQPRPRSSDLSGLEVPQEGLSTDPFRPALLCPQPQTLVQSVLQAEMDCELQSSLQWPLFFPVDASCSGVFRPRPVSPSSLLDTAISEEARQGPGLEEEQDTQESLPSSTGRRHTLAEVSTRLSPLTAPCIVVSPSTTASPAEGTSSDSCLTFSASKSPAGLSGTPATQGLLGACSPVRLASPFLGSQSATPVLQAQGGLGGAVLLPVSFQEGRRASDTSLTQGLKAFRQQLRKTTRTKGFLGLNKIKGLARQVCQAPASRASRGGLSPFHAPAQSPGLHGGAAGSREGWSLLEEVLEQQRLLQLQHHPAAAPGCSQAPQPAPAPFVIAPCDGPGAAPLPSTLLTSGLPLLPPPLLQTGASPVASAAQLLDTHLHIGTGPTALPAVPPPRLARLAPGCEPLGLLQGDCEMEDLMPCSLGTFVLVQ
Sequence of SIK1 in HEK293T cells (P57059 whole entry, the tested form may be a part): as the sequence (P57059 whole entry) above
Sequence of Recombinant SIK2 (Q9H0K1 whole entry): as the sequence (Q9H0K1 whole entry, the tested form may be a part) above

In the case of `CCc1nnc(-c2c(OC)cc(-c3cnc4cc(-c5cnn(C)c5)ccn34)cc2OC)o1` [Example 51, 2-[2,6-Dimethoxy-4-[7-(1-methylpyrazol-4-yl)imidazo[1,2-a]pyridin-3-yl]phenyl]-5-ethyl-1,3,4-oxadiazole], the EC50 (CRTC2 (TORC2); Homo sapiens, U2OS, read-out: CRTC2 nuclear translocation EC50) is reported as 147 nM, the “CRTC2 Efficacy (% of forskolin)” value (CRTC2 (TORC2); maximal CRTC2 nuclear translocation, U2OS cells, 90 minutes, maximum dose 10 μM) is reported as 86.5 % of forskolin and the HDAC4/5 phosphorylation (HDAC4/5) is reported as “reduces levels of HDAC4/5 phosphorylation”. The HDAC4/5 phosphorylation (HDAC4/5; listed as Cmpd. 51) was “reduced phosphorylated HDAC4/5 levels”, the HDAC4/5 phosphorylation (HDAC4/5; listed as cmpd. 51) was “dose-dependent reduction of phosphorylation” and the SOST expression (SOST) was “reduces SOST”. For the same compound, the SOST expression (SOST; listed as cmpd. 51) was “suppressed SOST expression; also recorded: suppression of SOST expression”, the oral availability ([1]; single dose of 10 mg/kg) was “excellent oral availability” and the maximum serum concentration ([1]; single oral dose of 10 mg/kg) was 11 µM. For the same compound, the serum drug levels ([2]; 2 hours after oral gavage on day 13, 3 dose groups) was “increased in a dose-dependent manner; also recorded: Dose-dependent increases”, the “tolerability (health concerns, weight loss, toxicities)” value ([2]; mice, once daily oral gavage for 3 weeks) was “without obvious health concerns or weight loss; also recorded: without obvious toxicities” and the “serum CTX (bone resorption marker)” value ([3]; listed as Cmpd. 51) was “increasing this marker of bone remodeling”. The “serum P1NP (bone formation marker)” value ([3]; listed as Cmpd. 51) was “increasing this marker of bone remodeling”, the “serum CTX (bone resorption marker)” value ([3]; listed as cmpd. 51) was “increased” and the “serum P1NP (bone formation marker)” value ([3]; listed as cmpd. 51) was “increased P1NP”. The “serum 1,25-vitamin D” value ([3]; listed as Cmpd. 51) was “increased serum 1,25-vitamin D”, the “serum BUN” value ([3]; listed as Cmpd. 51) was “did not affect serum BUN levels” and the “serum PTH levels” value ([3]; listed as Cmpd. 51) was “suppressed PTH levels”. For the same compound, the serum calcium ([3]; listed as Cmpd. 51) was “increased serum calcium”, the serum phosphorus ([3]; listed as Cmpd. 51) was “did not affect serum phosphorus levels” and the “serum 1,25-vitamin D” value ([3]; listed as cmpd. 51) was “increased 1,25-vitamin D levels”. For the same compound, the “serum BUN” value ([3]; listed as cmpd. 51) was “did not alter”, the “serum PTH levels” value ([3]; listed as cmpd. 51) was “reduced serum PTH levels” and the serum calcium ([3]; listed as cmpd. 51) was “increased calcium”. For the same compound, the serum phosphorus ([3]; listed as cmpd. 51) was “did not alter”, the “primary spongiosa bone mineral density (BMD), microCT” value ([4]; distal femur, 40 mg/kg) was “increased bone mineral density (BMD)” and the “primary spongiosa bone volume fraction (BV/TV), microCT” value ([4]; distal femur, 40 mg/kg) was “increased primary spongiosa bone volume fraction (BV/TV)”. The “midshaft cortical bone tissue mineral density (TMD), microCT” value ([4]; listed as Cmpd. 51) was “increased cortical bone tissue mineral density”, the “midshaft cortical bone tissue mineral density (TMD), microCT” value ([4]; listed as cmpd. 51) was “gains in bone mass” and the “TRAP-positive osteoclasts (tibia sections)” value ([5]; cmpd. 51 40 mg/kg) was “increased TRAP-positive osteoclasts”. The “osteoblasts (tibia sections)” value ([5]; cmpd. 51 40 mg/kg) was “increased osteoblasts”, the “trabecular bone (tibia sections, hematoxylin and eosin)” value ([5]; cmpd. 51 40 mg/kg) was “increased trabecular bone mass” and the “bone formation rate (BFR/BS), histomorphometry” value ([5]; distal femur metaphysis) was “increased the bone formation rate”. The “bone volume fraction (BV/TV), histomorphometry” value ([5]; distal femur metaphysis) was “increased bone volume fraction (BV/TV); also recorded: increased trabecular bone mass”, the “matrix apposition rate (MAR), histomorphometry” value ([5]; distal femur metaphysis) was “increased matrix apposition rate” and the “mineralizing surface (MS/BS), histomorphometry” value ([5]; distal femur metaphysis) was “Neither cmpd. 51 nor PTH treatment increased”. For the same compound, the “osteoblast surfaces (Ob.S.BS), histomorphometry” value ([5]; distal femur metaphysis) was “increased osteoblast surfaces”, the “osteoclast numbers (N.Oc/B.Pm), histomorphometry” value ([5]; distal femur metaphysis) was “increased osteoclast numbers” and the “Ctsk (cathepsin K) expression in cortical bone” value ([6]; RT-qPCR) was “expression was increased; also recorded: increases the expression”. For the same compound, the “Sost mRNA (sclerostin gene expression) in cortical bone” value ([6]; RT-qPCR) was “reduced sclerostin gene expression”, the “Spp1 (osteopontin) expression in cortical bone” value ([6]; RT-qPCR) was “expression was increased; also recorded: increases the expression of Spp1” and the “sclerostin protein levels in bone” value ([6]; immunohistochemistry) was “reduced”. For the same compound, the RANKL expression (RANKL) was “stimulates RANKL expression” and the RANKL expression (RANKL; listed as cmpd. 51) was “increased RANKL; also recorded: induction of RANKL”.
For `CCc1nnc(-c2c(OC)cc(-c3cnc4cc(-c5cnn(C6CC6)c5)ccn34)cc2OC)o1` [Example 55, 2-[4-[7-(1-Cyclopropylpyrazol-4-yl)imidazo[1,2-a]pyridin-3-yl]-2,6-dimethoxy-phenyl]-5-ethyl-1,3,4-oxadiazole], the IC50 (Recombinant SIK2) was 1.48 nM, the IC50 (SIK3) was 2.66 nM and the IC50 (SIK1) was 16 nM. The IC50 (SIK3 in HEK293T cells) was 4.48 nM, the IC50 (SIK1 in HEK293T cells) was 2100 nM and the IC50 [7] was 12.2 nM. The “RANKL Fold Induction” value (RANKL; maximal RANKL fold induction versus DMSO, four hours) was 22.80 fold.
